{"source": "BindingDB's records for doi:10.1021/acs.jmedchem.6b01088", "about": "(Bristol Myers Squibb, 2016)", "assay": "Inhibition of LCK in human peripheral T cells assessed as suppression of TCR-dependant cell proliferation"}
{"molecule": "Cc1c(-c2c(F)cc(C(N)=O)c3[nH]c4c(c23)CC[C@H](C(C)(C)O)C4)cccc1-n1c(=O)c2cccc(F)c2n(C)c1=O", "values": [{"measurement": "IC50", "result": 3.8, "unit": "µM"}]}
